This passage reports target mRNA inhibition results from the OligoGym collection.

Where “and” joins values, the source holds several entries; their conditions need not be identical. Equal values may be shown once. After the bases stand the sugars from the 5' end (letter, count) and the backbone: PS all phosphorothioate, else s phosphorothioate and o phosphodiester by linkage. HELM strings list units from the 5' end as sugar, base in round brackets, then linkage (d deoxyribose, r ribose, m 2'-O-methyl, p phosphodiester). Methylation of C is not given here. [moe] = 2'-O-(2-methoxyethyl) (MOE); [cEt] = constrained ethyl (cEt); [sp] = phosphorothioate linkage; e = 2'-O-(2-methoxyethyl) (MOE); k = constrained ethyl (cEt); d = 2'-deoxy (DNA)

The target of one data set is KRAS. Particulars: ASO.
Another data set has as its target HBV. To be noted: ASO, HepG2, 0.07 µM.

For the substance TTGAAAAGTGTTTATG (sugars k3 d10 k3, PS), the target mRNA inhibition with KRAS (A431, 2 µM) was determined as 26%.

In turn, “GTCCAGTGATACTTTC (sugars kkddddddddddkeke, PS)” gave a target mRNA inhibition in the data set with KRAS (A431, 2 µM) of 39%.

As to TGTAGTTTCACATAGC (sugars k3 d10 k3, PS), the target mRNA inhibition with KRAS (A431, 0.185 µM) was 28% and 3%; with KRAS (A431, 0.556 µM) it was 45% and 34%; in the data set with KRAS (A431, 2 µM) it was 59%; in the data set with KRAS (A431, 5 µM), 75% and 69%.

Turning to “TTAGTGATTAGGTCAA (sugars kkdddddddddkekek, PS)”, the target mRNA inhibition in the data set with KRAS (A431, 2 µM) amounted to 48%. In the case of GATATCCACAGCAGCA (sugars k3 d10 k3, PS), in the data set with KRAS (A431, 2 µM), the target mRNA inhibition was found to be 10%. As to AGTCTATTTCAGGCGG (sugars k3 d10 k3, PS), the target mRNA inhibition with KRAS (A431, 5 µM) amounted to 50%. Turning to TTTAATGTCACAAGCA (sugars k3 d10 k3, PS), the target mRNA inhibition with KRAS (A431, 0.037 µM) was 58%; with KRAS (A431, 2 µM), 57%; with KRAS (A431, 5 µM), 96% and 93%; in the data set with KRAS (NCI-H460, 0.037 µM) it was 44.2%. TAAGGTAAAAGCTAAC (sugars k3 d10 k3, PS) displayed a target mRNA inhibition with KRAS (A431, 2 µM) of 20%. Take “TCCAGTGATACTTTCA (sugars kkkddddddddkekek, PS)”: in the data set with KRAS (A431, 2 µM), the target mRNA inhibition amounted to 48%. The same measure, in the same setting: for TTTTAATGTCACAAGC (sugars k3 d10 k3, PS) the value was 52%; for “AGGAGTCTTTATAGTA (sugars k3 d9 k3 e1, PS)”, 6%; for TCTATGAAAGCTCAAA (sugars k3 d10 k3, PS), 18%. With AACAAATGCTAATAAT (sugars k3 d10 k3, PS), the target mRNA inhibition with KRAS (A431, 2 µM) came to 0%. In the case of “CAGTGTGACTCAGTTA (sugars kkkddddddddkdkdk, PS)”, the target mRNA inhibition was 10% with KRAS (A431, 0.185 µM); 24% in the data set with KRAS (A431, 0.556 µM); 45% in the data set with KRAS (A431, 1.667 µM); 60% and 50% in the data set with KRAS (A431, 2 µM); 66% in the data set with KRAS (A431, 5 µM). With CCAGTGATACTTTCAC (sugars k3 d10 k3, PS), in the data set with KRAS (A431, 2 µM), the target mRNA inhibition is 15%. In the data set with KRAS (A431, 2 µM), “AGTGTGACTCAGTTAA (sugars kkdddddddddkekek, PS)” gave a target mRNA inhibition of 48%. On the same count and under the same terms, to ACTTGAAAAGTGTTTA (sugars k3 d10 k3, PS) belongs 16%. On the same count and under the same terms, to GTGAAACTCTCTATGA (sugars k3 d10 k3, PS) belongs 28%; to GTAGTTTCACATAGCA (sugars k3 d10 k3, PS), 46%. The same measure, in the same setting: for “CAGTGTGACTCAGTTA (sugars kdddddddddkekeke, PS)” the value was 54%; for ATTAGGAGTCTTTATA (sugars k3 d10 k3, PS), 20%.

Consider AAAAAAATTAATGTCT (sugars k3 d10 k3, PS), for which the target mRNA inhibition with KRAS (A431, 2 µM) amounted to 7%. The same measure, in the same setting: to “CAGTGTTAAGAGAACT (sugars kddddddddddkekek, PS)” belongs 23%. In the case of GCTATTAGGAGTCTTT (sugars k3 d10 k3, PS), the target mRNA inhibition with KRAS (A431, 0.125 µM) was 68% and 67%; with KRAS (A431, 0.185 µM) it was 33% and 16% and 26%; with KRAS (A431, 0.556 µM), 50% and 47% and 44%; with KRAS (A431, 1.667 µM), 77% and 67% and 58%; in the data set with KRAS (NCI-H460, 0.037 µM), 69.9%.

As for “GATTGTGCTGAGCTTG (sugars kkdddddddddkdkdk, PS)”, the target mRNA inhibition is 0% with KRAS (A431, 0.185 µM); 17% in the data set with KRAS (A431, 0.556 µM); 48% with KRAS (A431, 1.667 µM); 57% with KRAS (A431, 2 µM); 58% in the data set with KRAS (A431, 5 µM). Turning to “ATGCTGTGAAACTCTC (sugars kkdddddddddkekek, PS)”, the target mRNA inhibition with KRAS (A431, 2 µM) turned out to be 16%.

In the case of GCATGAAGATTTCTGG (sugars k3 d10 k3, PS), in the data set with KRAS (A431, 2 µM), the target mRNA inhibition is 62% and 66% and 60%.

Take AGCTATTAGGAGTCTT (sugars k3 d10 k3, PS): the target mRNA inhibition in the data set with KRAS (A431, 2 µM) worked out at 35%.

Consider ATGCTGTGAAACTCTC (sugars k3 d10 k3, PS), for which the target mRNA inhibition is 26% in the data set with KRAS (A431, 0.185 µM); 42% with KRAS (A431, 0.556 µM); 47% with KRAS (A431, 1.667 µM); 58% and 52% and 39% with KRAS (A431, 2 µM); 72% in the data set with KRAS (A431, 5 µM).

Consider ATCTTGTTGAGCTATC (sugars k3 d10 k3, PS), for which, in the data set with KRAS (A431, 2 µM), the target mRNA inhibition was 40%. Same read-out and setting: for GTATTAACACAGAAGT (sugars k3 d10 k3, PS) the value was 0%; for “GGAGTCTTTATAGTAA (sugars kkdddddddddkekek, PS)”, 21%; for AGTGTGACTCAGTTAA (sugars k3 d10 k3, PS), 53%.

In the case of “RNA1{[moe](T)[sp].[moe](T)[sp].[moe](C)[sp].[moe](C)[sp].d(G)[sp].d(C)[sp].d(A)[sp].d(G)[sp].d(T)[sp].d(A)[sp].d(T)[sp].d(G)[sp].d(G)[sp].[moe](A)[sp].[moe](T)[sp].[moe](C)}$$$$V2.0”, the target mRNA inhibition in the data set with HBV was 43% and 49%. Same read-out and setting: to “RNA1{[moe](T)[sp].[moe](T)[sp].[moe](A)[sp].d(T)[sp].d(G)[sp].d(C)[sp].d(C)[sp].d(T)[sp].d(A)[sp].d(C)[sp].d(A)[sp].d(G)[sp].[moe](C)[sp].[moe](C)[sp].[moe](T)[sp].[moe](C)[sp].[moe](C)}$$$$V2.0” belongs 61% and 54%; to “RNA1{[moe](A)[sp].[moe](A)[sp].[moe](C)[sp].d(T)[sp].d(G)[sp].d(G)[sp].d(A)[sp].d(G)[sp].d(C)[sp].d(C)[sp].d(A)[sp].d(C)[sp].[moe](C)[sp].[moe](A)[sp].[moe](G)[sp].[moe](C)}$$$$V2.0”, 59% and 56%; to “RNA1{[moe](C)[sp].[moe](A)[sp].d(A)[sp].d(T)[sp].d(T)[sp].d(T)[sp].d(A)[sp].d(T)[sp].d(G)[sp].d(C)[sp].d(C)[sp].[moe](T)[sp].[moe](A)[sp].[moe](C)[sp].[moe](A)[sp].[moe](G)[sp].[moe](C)}$$$$V2.0”, 53% and 46%. On the same count and under the same terms, for “RNA1{[moe](C)[sp].[moe](A)[sp].[moe](C)[sp].[moe](T)[sp].[moe](A)[sp].d(G)[sp].d(T)[sp].d(A)[sp].d(A)[sp].d(A)[sp].d(C)[sp].d(T)[sp].d(G)[sp].d(A)[sp].[moe](G)[sp].[moe](C)[sp].[moe](C)}$$$$V2.0” the value was 71% and 62%; for “RNA1{[moe](T)[sp].[cEt](G)[sp].[cEt](C)[sp].d(A)[sp].d(G)[sp].d(A)[sp].d(G)[sp].d(G)[sp].d(T)[sp].d(G)[sp].d(A)[sp].d(A)[sp].d(G)[sp].[cEt](C)[sp].[cEt](G)[sp].[moe](A)}$$$$V2.0”, 71% and 73%; for “RNA1{[moe](A)[sp].[moe](A)[sp].[moe](T)[sp].d(T)[sp].d(T)[sp].d(A)[sp].d(T)[sp].d(G)[sp].d(C)[sp].d(C)[sp].d(T)[sp].d(A)[sp].[moe](C)[sp].[moe](A)[sp].[moe](G)[sp].[moe](C)}$$$$V2.0”, 52% and 49%. Regarding “RNA1{[moe](T)[sp].[cEt](G)[sp].d(G)[sp].d(A)[sp].d(G)[sp].d(C)[sp].d(C)[sp].d(A)[sp].d(C)[sp].d(C)[sp].d(A)[sp].d(G)[sp].[cEt](C)[sp].[moe](A)[sp].[cEt](G)[sp].[moe](G)}$$$$V2.0”, the target mRNA inhibition in the data set with HBV is 59% and 42%. The same measure, in the same setting: to “RNA1{[moe](T)[sp].[moe](G)[sp].[moe](A)[sp].d(A)[sp].d(G)[sp].d(C)[sp].d(G)[sp].d(A)[sp].d(A)[sp].d(G)[sp].d(T)[sp].d(G)[sp].[moe](C)[sp].[moe](A)[sp].[moe](C)[sp].[moe](A)[sp].[moe](C)}$$$$V2.0” belongs 74% and 60%. Same read-out and setting: to “RNA1{[moe](T)[sp].[moe](T)[sp].[moe](T)[sp].d(A)[sp].d(T)[sp].d(G)[sp].d(C)[sp].d(C)[sp].d(T)[sp].d(A)[sp].d(C)[sp].d(A)[sp].[moe](G)[sp].[moe](C)[sp].[moe](C)[sp].[moe](T)[sp].[moe](C)}$$$$V2.0” belongs 62% and 49%; to “RNA1{[moe](A)[sp].[moe](G)[sp].[moe](G)[sp].[moe](T)[sp].d(G)[sp].d(A)[sp].d(A)[sp].d(G)[sp].d(C)[sp].d(G)[sp].d(A)[sp].d(A)[sp].d(G)[sp].[moe](T)[sp].[moe](G)[sp].[moe](C)}$$$$V2.0”, 3% and 19%; to “RNA1{[moe](A)[sp].[moe](G)[sp].[moe](C)[sp].[moe](G)[sp].[moe](A)[sp].d(A)[sp].d(G)[sp].d(T)[sp].d(G)[sp].d(C)[sp].d(A)[sp].d(C)[sp].d(A)[sp].d(C)[sp].[moe](G)[sp].[moe](G)}$$$$V2.0”, 79% and 74%. The same measure, in the same setting: to “RNA1{[moe](T)[sp].[cEt](C)[sp].[cEt](C)[sp].d(G)[sp].d(C)[sp].d(A)[sp].d(G)[sp].d(T)[sp].d(A)[sp].d(T)[sp].d(G)[sp].d(G)[sp].d(A)[sp].[cEt](T)[sp].[cEt](C)[sp].[moe](G)}$$$$V2.0” belongs 79% and 76%.

With “RNA1{[moe](A)[sp].[moe](C)[sp].[moe](G)[sp].[moe](G)[sp].[moe](G)[sp].d(C)[sp].d(A)[sp].d(A)[sp].d(C)[sp].d(A)[sp].d(T)[sp].d(A)[sp].d(C)[sp].d(C)[sp].[moe](T)[sp].[moe](T)[sp].[moe](G)}$$$$V2.0”, the target mRNA inhibition with HBV was 48% and 45%. Still for that read-out and setting: for “RNA1{[moe](G)[sp].[moe](A)[sp].[moe](G)[sp].[moe](G)[sp].d(T)[sp].d(G)[sp].d(A)[sp].d(A)[sp].d(G)[sp].d(C)[sp].d(G)[sp].d(A)[sp].d(A)[sp].[moe](G)[sp].[moe](T)[sp].[moe](G)[sp].[moe](C)}$$$$V2.0” the value was 63% and 54%; for “RNA1{[moe](T)[sp].[moe](T)[sp].d(C)[sp].d(C)[sp].d(G)[sp].d(C)[sp].d(A)[sp].d(G)[sp].d(T)[sp].d(A)[sp].d(T)[sp].[moe](G)[sp].[moe](G)[sp].[moe](A)[sp].[moe](T)[sp].[moe](C)[sp].[moe](G)}$$$$V2.0”, 67% and 72%; for “RNA1{[moe](G)[sp].[cEt](C)[sp].[cEt](A)[sp].d(C)[sp].d(A)[sp].d(G)[sp].d(C)[sp].d(T)[sp].d(T)[sp].d(G)[sp].d(G)[sp].d(A)[sp].d(G)[sp].[cEt](G)[sp].[cEt](C)[sp].[moe](T)}$$$$V2.0”, 27% and 12%.
